# Measured values: US20130023504A1, “Modulation of Prostaglandin/Cyclooxygenase Metabolic Pathways” (HUNTER-FLEMING LIMITED, priority 2006, published 2013)
# System: rat spinal cord motor neurones
# Experiment: Neurite growth of spinal cord motor neurones in primary culture (anti β-Tubulin, In Cell Analyzer)
# Type: cell-based
# Description: Rat spinal motor neurones were prepared according to the method described by Martinou et al., 1992 (Martinou J C, Martinou I, Kato AC Cholinergic differentiation factor (CDF/LIF) promotes survival of isolated rat embryonic motoneurons in vitro. Neuron. 1992 April; 8(4):737-44). Briefly, pregnant female Wistar rats of 15 days gestation, were killed by cervical dislocation and the foetuses were removed from the uterus. Their spinal cords were removed and placed in ice-cold medium of Leibovitz (L15, Invitrogen, 11415-049) containing 1% of bovine serum albuminutes (BSA fatty acid free, Eurobio, Les Ulis, France, GXXBSA01-65). Meninges were carefully removed.
# The spinal motor neurones were dissociated by trypsinisation for 20 minutes at 37° C. (trypsin EDTA 10× Invitrogen 15400054) diluted in PBS without calcium and magnesium (Invitrogen 2007-03). The reaction was stopped by the addition of Dulbecco Modified Eagle's Media (DMEM, Invitrogen 21969-035) containing DNase I grade II (0.1 mg/ml Roche diagnostic 104159) and 10% foetal calf serum (FCS, Invitrogen 10270098). The suspension was then mechanically dissociated by 3 passages through a 10 ml pipette. Cells were then centrifuged at 580 g for 10 minutes at room temperature. The pellet of dissociated cells was re-suspended in L15 medium and the resulting suspension was enriched in motor neurones by centrifugation at 180×g for 10 minutes at room temperature on a layer of BSA solution (3.5%) in L15 medium. The supernatant was discarded and the pellet was re-suspended in L15 medium supplemented with DNase I (1%). Then the suspension was layered over a cushion of Optiprep (d: 1.06 g/ml; Abcys, Paris, France; 1030061) and centrifuged at 335×g for 15 minutes at room temperature. The upper phase, containing the purified motor neurones, was collected, re-suspended with L15 medium and centrifuged at 800×g for 10 minutes at room temperature. The cell pellet was finally resuspended in a defined culture medium consisting of neurobasal medium supplemented with 2% B27, 2 mM L-Glutamine and Penicillin 50 Ul/ml-Streptomycin 50 μg/ml. Viable cells were counted in a Neubauer cytometer using the trypan blue exclusion test (Sigma T8154) then plated at 30 000 cells/well in 96 well-plates (pre-coated with poly-1-lysine; Nunclon, Invitrogen P5899) and cultured at 37° C. in a humidified air (95%) CO2 (5%) atmosphere.
# The culture medium was changed into a defined culture medium after a 12 hours incubation period following the conditions described below:
# BDNF 50 ng/ml and 10 ng/ml (in 0.1% DMSO)
# After 6 hours, 12 hours and 24 hours of incubation with, cells were fixed for 5 minutes in an ethanol/acetic acid solution (95%/5%) at −20° C. and rinsed 3 times in PBS.
# Motor neurones and sensory neurones were labelled by monoclonal anti β-Tubulin antibody (Sigma T8660) diluted at 1:400 in incubation solution (PBS with 5% of FCS and 0.1% of saponin, Sigma S-7900). This antibody specifically labels neurone cell bodies and neurites.
# After 2 hours of incubation, the cells were washed in PBS and incubated with Alexa Fluor 488 goat anti mouse IgG (Molecular Probes A11001) diluted at 1:300 in incubation solution to reveal the 8-Tubulin III antibodies.
# Analysis of the total length of neurones labelled with anti β-Tubulin antibodies (neurones) were carried out using In Cell Analyzer 1000 3.2.Workstation software.
# The results were expressed in percentage compared to the vehicle. Comparison of groups was carried out using the unpaired T test.
smiles,measurement,setting,value
"CC12CCC3C(C1CCC2=O)[C@@H](O)C[C@H]1C[C@@H](O)CCC31C (stereo partly drawn) [Compound 7β-OH-EPIA, 7β-hydroxy-EPIAndrosterone]","Neurites length per field, % Vehicle","10^−4 M, 6 hours",124%
same,"Neurites length per field, Mean","10^−4 M, 6 hours",315.9 μm
same,"Neurites length per field, % Vehicle","10^−4 M, 12 hours",142%
same,"Neurites length per field, Mean","10^−4 M, 12 hours",602.4 μm
same,"Neurites length per field, % Vehicle","10^−4 M, 24 hours",87%
same,"Neurites length per field, Mean","10^−4 M, 24 hours",188.4 μm
same,"Neurites length per field, % Vehicle","10^−5 M, 6 hours",115%
same,"Neurites length per field, Mean","10^−5 M, 6 hours",293.3 μm
same,"Neurites length per field, % Vehicle","10^−5 M, 12 hours",161%
same,"Neurites length per field, Mean","10^−5 M, 12 hours",680.9 μm
same,"Neurites length per field, % Vehicle","10^−5 M, 24 hours",93%
same,"Neurites length per field, Mean","10^−5 M, 24 hours",200.9 μm
same,"Neurites length per field, % Vehicle","10^−6 M, 6 hours",139%
same,"Neurites length per field, Mean","10^−6 M, 6 hours",354.5 μm
same,"Neurites length per field, % Vehicle","10^−6 M, 12 hours",137%
same,"Neurites length per field, Mean","10^−6 M, 12 hours",580.3 μm
same,"Neurites length per field, % Vehicle","10^−6 M, 24 hours",104%
same,"Neurites length per field, Mean","10^−6 M, 24 hours",224.8 μm
same,"Neurites length per field, % Vehicle","10^−7 M, 6 hours",138%
same,"Neurites length per field, Mean","10^−7 M, 6 hours",350.5 μm
same,"Neurites length per field, % Vehicle","10^−7 M, 12 hours",137%
same,"Neurites length per field, Mean","10^−7 M, 12 hours",956.7 μm
same,"Neurites length per field, % Vehicle","10^−7 M, 24 hours",126%
same,"Neurites length per field, Mean","10^−7 M, 24 hours",271.7 μm
same,"Neurites length per field, % Vehicle","10^−8 M, 6 hours",150%
same,"Neurites length per field, Mean","10^−8 M, 6 hours",382.4 μm
same,"Neurites length per field, % Vehicle","10^−8 M, 12 hours",179%
same,"Neurites length per field, Mean","10^−8 M, 12 hours",759.0 μm
same,"Neurites length per field, % Vehicle","10^−8 M, 24 hours",174%
same,"Neurites length per field, Mean","10^−8 M, 24 hours",374.6 μm
same,"Neurites length per field, % Vehicle","10^−9 M, 6 hours",188%
same,"Neurites length per field, Mean","10^−9 M, 6 hours",479.3 μm
same,"Neurites length per field, % Vehicle","10^−9 M, 12 hours",180%
same,"Neurites length per field, Mean","10^−9 M, 12 hours",764.9 μm
same,"Neurites length per field, % Vehicle","10^−9 M, 24 hours",123%
same,"Neurites length per field, Mean","10^−9 M, 24 hours",265.9 μm
